Where a name gives a salt, the structure may show the parent alone.
Tests used:
human full-lengt MKNK1 = target: T1, human full-lengt MKNK1 (Homo sapiens, UniProt Q9BUB5, T385D); experiment: MKNK1 kinase assay (MKNK1 TR-FRET assay); format: biochemical; conditions: ATP final conc. 10 μM, 15 min preincubation, 45 min reaction at 22° C.
T1 construct: purchased Carna Biosciences 02-145; host or cells: insect cells (baculovirus expression system)
Text: MKNK1-inhibitory activity of compounds of the present invention was quantified employing the MKNK1 TR-FRET assay as described in the following paragraphs.
(§1) A recombinant fusion protein of Glutathione-S-Transferase (GST, N-terminally) and human full-lengt MKNK1 (amino acids 1-424 and T344D of accession number BAA 19885.1), expressed in insect cells using baculovirus expression system and purified via glutathione sepharose affinity chromatography, was purchased from Carna Biosciences (product no 02-145) and used as enzyme. As substrate for the kinase reaction the biotinylated peptide biotin-Ahx-IKKRKLTRRKSLKG (C-terminus in amide form) was used which can be purchased e.g. form the company Biosyntan (Berlin-Buch, Germany).
(§2) For the assay 50 nL of a 100 fold concentrated solution of the test compound in DMSO was pipetted into a black low volume 384 well microtiter plate (Greiner Bio-One, Frickenhausen, Germany), 2 μL of a solution of MKNK1 in aqueous assay buffer [50 mM HEPES pH 7.5, 5 mM magnesium chloride, 1.0 mM dithiothreitol, 0.005% (v/v) Nonidet-P40 (Sigma)] was added and the mixture was incubated for 15 min at 22° C. to allow pre-binding of the test compounds to the enzyme before the start of the kinase reaction. Then the kinase reaction was started by the addition of 3 μL of a solution of adenosine-tri-phosphate (ATP, 16.7 μM=>final conc. in the 5 μL assay volume is 10 μM) and substrate (0.1 μM=>final conc. in the 5 μL assay volume is 0.06 μM) in assay buffer and the resulting mixture was incubated for a reaction time of 45 min at 22° C. The concentration of MKNK1 was adjusted depending of the activity of the enzyme lot and was chosen appropriate to have the assay in the linear range, typical concentrations were in the range of 0.05 μg/ml. The reaction was stopped by the addition of 5 μL of a solution of TR-FRET detection reagents (5 nM streptavidine-XL665 [Cisbio Bioassays, Codolet, France] and 1 nM anti-ribosomal protein S6 (pSer236)-antibody from Invitrogen [#44921G] and 1 nM LANCE EU-W1024 labeled ProteinG [Perkin-Elmer, product no. AD0071]) in an aqueous EDTA-solution (100 mM EDTA, 0.1% (w/v) bovine serum albumin in 50 mM HEPES pH 7.5).
The resulting mixture was incubated for 1 h at 22° C. to allow the formation of complex between the phosphorylated biotinylated peptide and the detection reagents. Subsequently the amount of phosphorylated substrate was evaluated by measurement of the resonance energy transfer from the Eu-chelate to the streptavidine-XL. Therefore, the fluorescence emissions at 620 nm and 665 nm after excitation at 350 nm were measured in a TR-FRET reader, e.g. a Rubystar (BMG Labtechnologies, Offenburg, Germany) or a Viewlux (Perkin-Elmer). The ratio of the emissions at 665 nm and at […] was taken as the measure for the amount of phosphorylated substrate. The data were normalised (enzyme reaction without inhibitor=0% inhibition, all other assay components but no enzyme=100% inhibition). Usually the test compounds were tested on the same microtiterplate in 11 different concentrations in the range of 20 μM to 0.1 nM (20 μM, 5.9 μM, 1.7 μM, 0.51 μM, 0.15 μM, 44 nM, 13 nM, 3.8 nM, 1.1 nM, 0.33 nM and 0.1 nM, the dilution series prepared separately before the assay on the level of the 100 fold concentrated solutions in DMSO by serial 1:3.4 dilutions) in duplicate values for each concentration and […] were calculated by a 4 parameter fit.

human full-length MKNK1 = target: T2, human full-length MKNK1 (Homo sapiens, UniProt Q9BUB5, T385D); experiment: MKNK1 kinase high ATP assay (TR-FRET-based); format: biochemical; conditions: ATP final conc. 2 mM, 15 min preincubation, 30 min reaction at 22° C.
T2 construct: purchased Carna Biosciences 02-145; host or cells: insect cells (baculovirus expression system)
Experimental: MKNK1 Kinase High ATP Assay
MKNK1-inhibitory activity at high ATP of compounds of the present invention after their preincubation with MKNK1 was quantified employing the TR-FRET-based MKNK1 high ATP assay as described in the following paragraphs.
as §1, with “human full-length” for “human full-lengt”, “was used,” for “was used”, “e.g. from” for “e.g. form”
as §2, with “3.3 mM=>final” for “16.7 μM=>final”, “2 mM)” for “10 μM)”, “30” for “45”, “0.003 μg/mL.” for “0.05 μg/ml.”
The resulting mixture was incubated for 1 h at 22° C. to allow the formation of complex between the phosphorylated biotinylated peptide and the detection reagents. Subsequently the amount of phosphorylated substrate was evaluated by measurement of the resonance energy transfer from the Eu-chelate to the streptavidine-XL. Therefore, the fluorescence emissions at 620 nm and 665 nm after excitation at 350 nm were measured in a TR-FRET reader, e.g. a Rubystar (BMG Labtechnologies, Offenburg, Germany) or a Viewlux (Perkin-Elmer). The ratio of the emissions at 665 nm and at […] was taken as the measure for the amount of phosphorylated substrate. The data were normalised (enzyme reaction without inhibitor=0% inhibition, all other assay components but no enzyme=100% inhibition).

T1 sequence (Q9BUB5 1-424 isoform Q9BUB5-2 T344D): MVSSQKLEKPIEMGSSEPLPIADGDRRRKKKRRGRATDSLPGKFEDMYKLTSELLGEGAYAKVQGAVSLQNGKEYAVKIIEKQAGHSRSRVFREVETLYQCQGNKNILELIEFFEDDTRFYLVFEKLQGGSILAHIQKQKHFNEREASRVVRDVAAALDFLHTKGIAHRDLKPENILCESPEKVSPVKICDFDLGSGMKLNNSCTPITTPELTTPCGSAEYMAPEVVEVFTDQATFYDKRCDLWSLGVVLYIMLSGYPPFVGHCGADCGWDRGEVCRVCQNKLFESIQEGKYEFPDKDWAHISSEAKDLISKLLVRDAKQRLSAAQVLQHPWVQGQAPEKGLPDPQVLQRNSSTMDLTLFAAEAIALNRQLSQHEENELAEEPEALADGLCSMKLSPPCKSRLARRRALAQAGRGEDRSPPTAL
T2 sequence (Q9BUB5 1-424 isoform Q9BUB5-2 T344D): as above

SMILES | IC50 (human full-lengt MKNK1) | IC50 (human full-length MKNK1)
N[C@H](COc1ccc2ncc(-c3cc4cnccc4o3)n2n1)c1ccccc1 [Example 1, (1S)-2-{[3-(Furo[3,2-c]pyridin-2-yl)imidazo[1,2-b]pyridazin-6-yl]oxy}-1-phenylethanamine] | 17 nM | 53 nM
COc1nccc2oc(-c3cnc4ccc(O[C@H]5C[C@H](N)C5)nn34)cc12 [Example 2, trans-3-{[3-(4-Methoxyfuro[3,2-c]pyridin-2-yl)imidazo[1,2-b]pyridazin-6-yl]-oxy}cyclobutanamine] | 3 nM | 5 nM
COc1nccc2oc(-c3cnc4ccc(OC[C@@H](C)N)nn34)cc12 [Example 3, (2R)-1-{[3-(4-Methoxyfuro[3,2-c]pyridin-2-yl)imidazo[1,2-b]pyridazin-6-yl]-oxy}propan-2-amine] | 11 nM | 27 nM
COc1nccc2oc(-c3cnc4ccc(OC[C@@H](N)c5ccccc5)nn34)cc12 [Example 4, (1S)-2-{[3-(4-Methoxyfuro[3,2-c]pyridin-2-yl)imidazo[1,2-b]pyridazin-6-yl]oxy}-1-phenylethanamine] | 20 nM | 91 nM
COc1nccc2oc(-c3cnc4ccc(OC[C@H](C)N)nn34)cc12 [Example 5, (2S)-1-{[3-(4-Methoxyfuro[3,2-c]pyridin-2-yl)imidazo[1,2-b]pyridazin-6-yl]-oxy}propan-2-amine] | 21 nM | 65 nM
COc1nccc2oc(-c3cnc4ccc(O[C@H](C)CN)nn34)cc12 [Example 6, (2R)-2-{[3-(4-Methoxyfuro[3,2-c]pyridin-2-yl)imidazo[1,2-b]pyridazin-6-yl]-oxy}propan-1-amine] | 23 nM | 37 nM
N[C@@H](COc1ccc2ncc(-c3cc4cnccc4o3)n2n1)c1ccccc1 [Example 7, (1R)-2-{[3-(Furo[3,2-c]pyridin-2-yl)imidazo[1,2-b]pyridazin-6-yl]oxy}-1-phenylethanamine] | 25 nM | 91 nM
C[C@H](CN)Oc1ccc2ncc(-c3cc4cnccc4o3)n2n1 [Example 8, (2R)-2-{[3-(Furo[3,2-c]pyridin-2-yl)imidazo[1,2-b]pyridazin-6-yl]oxy}propan-1-amine] | 28 nM | 136 nM
COc1nccc2oc(-c3cnc4ccc(OC[C@H](N)c5ccccc5)nn34)cc12 [Example 9, (1R)-2-{[3-(4-Methoxyfuro[3,2-c]pyridin-2-yl)imidazo[1,2-b]pyridazin-6-yl]oxy}-1-phenylethanamine] | 48 nM | 94 nM
COc1nccc2oc(-c3cnc4ccc(OC[C@@H](N)[C@@H](C)OCc5ccccc5)nn34)cc12 [Example 10, (2R,3R)-3-(Benzyloxy)-1-{[3-(4-methoxyfuro[3,2-c]pyridin-2-yl)imidazo[1,2-b]-pyridazin-6-yl]oxy}butan-2-amine] | 34 nM | 62 nM
COc1nccc2oc(-c3cnc4ccc(OC[C@H](N)COCc5ccccc5)nn34)cc12 [Example 11, (2R)-1-(Benzyloxy)-3-{[3-(4-methoxyfuro[3,2-c]pyridin-2-yl)imidazo[1,2-b]-pyridazin-6-yl]oxy}propan-2-amine] | 17 nM | 59 nM
C[C@H](N)COc1ccc2ncc(-c3cc4ccncc4o3)n2n1 [Example 12, (2S)-1-{[3-(Furo[2,3-c]pyridin-2-yl)imidazo[1,2-b]pyridazin-6-yl]oxy}propan-2-amine] | 26 nM | 65 nM
N[C@H]1C[C@H](Oc2ccc3ncc(-c4cc5ccncc5o4)n3n2)C1 [Example 13, trans-3-{[3-(Furo[2,3-c]pyridin-2-yl)imidazo[1,2-b]pyridazin-6-yl]oxy}-cyclobutanamine salt with formic acid] | 5 nM | 16 nM
N[C@H]1C[C@H](Oc2ccc3ncc(-c4cc5cnccc5o4)n3n2)C1 [Example 14, trans-3-{[3-(Furo[3,2-c]pyridin-2-yl)imidazo[1,2-b]pyridazin-6-yl]oxy}cyclobutanamine salt with formic acid] | 5 nM | 34 nM
COc1nccc2oc(-c3cnc4ccc(OC[C@H](N)CO)nn34)cc12 [Example 15, (2R)-2-Amino-3-{[3-(4-methoxyfuro[3,2-c]pyridin-2-yl)imidazo[1,2-b]pyridazin-6-yl]oxy}propan-1-C1] | 12 nM | 31 nM
COc1nccc2oc(-c3cnc4ccc(OCC(C)CN)nn34)cc12 (stereo not drawn) [Example 16, 3-{[3-(4-Methoxyfuro[3,2-c]pyridin-2-yl)imidazo[1,2-b]pyridazin-6-yl]oxy}-2-methylpropan-1-amine] | 8 nM | 19 nM
C[C@@H](N)COc1ccc2ncc(-c3cc4ncccc4o3)n2n1 [Example 17, (2R)-{[3-(Furo[3,2-b]pyridin-2-yl)imidazo[1,2-b]pyridazin-6-yl]oxy}propan-2-amine] | 67 nM | 127 nM
C[C@H](N)COc1ccc2ncc(-c3cc4c(OC5CCC5)nccc4o3)n2n1 [Example 41, (2S)-1-({3-[4-(Cyclobutyloxy)furo[3,2-c]pyridin-2-yl]imidazo[1,2-b]pyridazin-6-yl}oxy)propan-2-amine] |  | 19 nM
C[C@@H](N)COc1ccc2ncc(-c3cc4c(OC5CCC5)nccc4o3)n2n1 [Example 42, (2R)-1-({3-[4-(Cyclobutyloxy)furo[3,2-c]pyridin-2-yl]imidazo[1,2-b]pyridazin-6-yl}oxy)propan-2-amine] |  | 26 nM

Source: US9643974B2, “Amino-substituted imidazopyridazines” (Bayer Intellectual Property GmbH, priority 2011, dated 2017)
